Data as given in patent US20100099561A1, “HETEROBICYCLIC ALKYLTHIO-BRIDGED ISOXAZOLINES” (E.I. DU PONT DE NEMOURS AND COMPANY, priority 2008, published 2010).

Columns and labels:
Assay type in all cases: in vivo
[1] = tested on: barnyardgrass (Echinochloa crus-galli); assay: Test A preemergence, barnyardgrass; settings: 0 to 100 scale (0 no effect, 100 complete control)
How it was run: (§1)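 Each compound, in a non-phytotoxic solvent mixture with surfactant, is applied to soil at planting and, concurrently, to young one- to two-leaf plants. After approximately ten greenhouse days, visual response is rated 0 (no effect) to 100 (complete control) against untreated controls.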

[2] = tested on: large crabgrass (Digitaria sanguinalis); assay: Test A preemergence, large crabgrass; settings: 0 to 100 scale (0 no effect, 100 complete control)
How it was run: as §1

[3] = tested on: giant foxtail (Setaria faberi); assay: Test A preemergence, giant foxtail; settings: 0 to 100 scale (0 no effect, 100 complete control)
How it was run: as §1

[4] = tested on: morningglory (Ipomoea spp.); assay: Test A preemergence, morningglory; settings: 0 to 100 scale (0 no effect, 100 complete control)
How it was run: as §1

[5] = tested on: pigweed (Amaranthus retroflexus); assay: Test A preemergence, pigweed; settings: 0 to 100 scale (0 no effect, 100 complete control)
How it was run: as §1

[6] = tested on: velvetleaf (Abutilon theophrasti); assay: Test A preemergence, velvetleaf; settings: 0 to 100 scale (0 no effect, 100 complete control)
How it was run: as §1

[7] = tested on: wheat (Triticum aestivum); assay: Test A preemergence, wheat; settings: 0 to 100 scale (0 no effect, 100 complete control)
How it was run: as §1

[8] = tested on: corn (Zea mays); assay: Test A preemergence, corn; settings: 125 g ai/ha, 0 to 100 scale (0 no effect, 100 complete control)
How it was run: as §1

[9] = tested on: barnyardgrass (Echinochloa crus-galli); assay: Test A postemergence, barnyardgrass; settings: 0 to 100 scale (0 no effect, 100 complete control)
How it was run: as §1

[10] = tested on: large crabgrass (Digitaria sanguinalis); assay: Test A postemergence, large crabgrass; settings: 0 to 100 scale (0 no effect, 100 complete control)
How it was run: as §1

[11] = tested on: giant foxtail (Setaria faberi); assay: Test A postemergence, giant foxtail; settings: 0 to 100 scale (0 no effect, 100 complete control)
How it was run: as §1

[12] = tested on: morningglory (Ipomoea spp.); assay: Test A postemergence, morningglory; settings: 0 to 100 scale (0 no effect, 100 complete control)
How it was run: as §1

[13] = tested on: pigweed (Amaranthus retroflexus); assay: Test A postemergence, pigweed; settings: 0 to 100 scale (0 no effect, 100 complete control)
How it was run: as §1

[14] = tested on: velvetleaf (Abutilon theophrasti); assay: Test A postemergence, velvetleaf; settings: 0 to 100 scale (0 no effect, 100 complete control)
How it was run: as §1

[15] = tested on: wheat (Triticum aestivum); assay: Test A postemergence, wheat; settings: 0 to 100 scale (0 no effect, 100 complete control)
How it was run: as §1

[16] = tested on: corn (Zea mays); assay: Test A postemergence, corn; settings: 0 to 100 scale (0 no effect, 100 complete control)
How it was run: as §1

[17] = tested on: Italian ryegrass (Lolium multiflorum); assay: Test B preemergence, Italian ryegrass; settings: Table B, preemergence; visual rating on a 0 to 100 scale (0 no effect, 100 complete control), 13 to 15 days after treatment; application rate of this section not shown
Text: (§2) Seeds of plant species selected from blackgrass (Alopecurus myosuroides), downy bromegrass (Bromus tectorum), green foxtail (Setaria viridis), Italian ryegrass (Lolium multiflorum), wheat (Triticum aestivum), wild oat (Avena fatua), catchweed bedstraw (Galium aparine), bermudagrass (Cynodon dactylon), Surinam grass (Brachiaria decumbens), cocklebur (Xanthium strumarium), corn (Zea mays), large crabgrass (Digitaria sanguinalis), woolly cupgrass (Eriochloa villosa), giant foxtail (Setaria faberii), goosegrass (Eleusine indica), johnsongrass (Sorghum halepense), kochia (Kochia scoparia), lambsquarters (Chenopodium album), morningglory (Ipomoea coccinea), nightshade (eastern black nightshade, Solanum ptycanthum), yellow nutsedge (Cyperus esculentus), pigweed (Amaranthus retroflexus), ragweed (common ragweed, Ambrosia elatior), soybean (Glycine max), sunflower (common oilseed sunflower, Helianthus annuus), Russian thistle (Salsola kali), and velvetleaf (Abutilon theophrasti) were planted into a blend of loam soil and sand and treated preemergence with test compounds formulated in a non-phytotoxic solvent mixture which included a surfactant. Treated plants and controls were maintained in a greenhouse for 13 to 15 days, after which time all species were compared to controls and visually evaluated. Plant response ratings, summarized in Table B, are based on a scale of 0 to 100 where 0 is no effect and 100 is complete control. A dash (-) response means no test result.

[18] = tested on: wheat (Triticum aestivum); assay: Test B preemergence, wheat; settings: Table B, preemergence; visual rating on a 0 to 100 scale (0 no effect, 100 complete control), 13 to 15 days after treatment; application rate of this section not shown
Text: as §2

[19] = tested on: Surinam grass (Brachiaria decumbens); assay: Test B preemergence, Surinam grass; settings: Table B, preemergence; visual rating on a 0 to 100 scale (0 no effect, 100 complete control), 13 to 15 days after treatment; application rate of this section not shown
Text: as §2

[20] = tested on: soybean (Glycine max); assay: Test B preemergence, soybean; settings: Table B, preemergence; visual rating on a 0 to 100 scale (0 no effect, 100 complete control), 13 to 15 days after treatment; application rate of this section not shown
Text: as §2

[21] = tested on: sunflower (common oilseed sunflower, Helianthus annuus); assay: Test B preemergence, sunflower; settings: Table B, preemergence; visual rating on a 0 to 100 scale (0 no effect, 100 complete control), 13 to 15 days after treatment; application rate of this section not shown
Text: as §2

[22] = tested on: velvetleaf (Abutilon theophrasti); assay: Test B preemergence, velvetleaf; settings: Table B, preemergence; visual rating on a 0 to 100 scale (0 no effect, 100 complete control), 13 to 15 days after treatment; application rate of this section not shown
Text: as §2

[23] = tested on: rice (Oryza sativa); assay: Test B flooded paddy test, rice; settings: Flood, scale 0 to 100
How it was run: (§3)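 Compounds were added directly to paddy water over 2-leaf-stage plants in pots flooded 3 cm above soil, water depth maintained. Visual injury scored against controls after 13 to 15 days in greenhouse, 0 (none) to 100 (complete control); dash indicates no result.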

[24] = tested on: umbrella sedge (Cyperus difformis); assay: Test B flooded paddy test, umbrella sedge; settings: Flood, scale 0 to 100
How it was run: as §3

[25] = tested on: ducksalad (Heteranthera limosa); assay: Test B flooded paddy test, ducksalad; settings: Flood, scale 0 to 100
How it was run: as §3

[26] = tested on: barnyardgrass (Echinochloa crus-galli); assay: Test B flooded paddy test, barnyardgrass; settings: Flood
How it was run: as §3

SMILES: Cn1c(=O)c(CS(=O)(=O)C2=NOC(C)(C)C2)c(C(F)(F)F)c2ccccc21 [Compound 1, 3-[[(4,5-dihydro-5,5-dimethyl-3-isoxazolyl)sulfonyl]methyl]-1-methyl-4-(trifluoromethyl)-2(1H)-quinolinone]
- Plant response rating, Barnyardgrass ([1]; 125 g ai/ha): 0
- Plant response rating, Barnyardgrass ([1]; 500 g ai/ha): 80
- Plant response rating, Crabgrass, Large ([2]; 125 g ai/ha): 0
- Plant response rating, Crabgrass, Large ([2]; 500 g ai/ha): 50
- Plant response rating, Foxtail, Giant ([3]; 125 g ai/ha): 30
- Plant response rating, Foxtail, Giant ([3]; 500 g ai/ha): 90
- Plant response rating, Morningglory ([4]; 125 g ai/ha): 0
- Plant response rating, Morningglory ([4]; 500 g ai/ha): 0
- Plant response rating, Pigweed ([5]; 125 g ai/ha): 0
- Plant response rating, Pigweed ([5]; 500 g ai/ha): 60
- Plant response rating, Velvetleaf ([6]; 125 g ai/ha): 0
- Plant response rating, Velvetleaf ([6]; 500 g ai/ha): 0
- Plant response rating, Wheat ([7]; 125 g ai/ha): 0
- Plant response rating, Wheat ([7]; 500 g ai/ha): 0
- Plant response rating, Corn [8]: 0
- Plant response rating, Barnyardgrass ([9]; 125 g ai/ha): 0
- Plant response rating, Barnyardgrass ([9]; 500 g ai/ha): 80
- Plant response rating, Crabgrass, Large ([10]; 125 g ai/ha): 10
- Plant response rating, Crabgrass, Large ([10]; 500 g ai/ha): 70
- Plant response rating, Foxtail, Giant ([11]; 125 g ai/ha): 20
- Plant response rating, Foxtail, Giant ([11]; 500 g ai/ha): 80
- Plant response rating, Morningglory ([12]; 125 g ai/ha): 0
- Plant response rating, Morningglory ([12]; 500 g ai/ha): 0
- Plant response rating, Pigweed ([13]; 125 g ai/ha): 0
- Plant response rating, Pigweed ([13]; 500 g ai/ha): 50
- Plant response rating, Velvetleaf ([14]; 125 g ai/ha): 0
- Plant response rating, Velvetleaf ([14]; 500 g ai/ha): 20
- Plant response rating, Wheat ([15]; 125 g ai/ha): 0
- Plant response rating, Wheat ([15]; 500 g ai/ha): 0
- Plant response rating, Corn ([16]; 125 g ai/ha): 0
- Plant response rating, Corn ([16]; 500 g ai/ha): 0
- Plant response rating, Ryegrass, Italian [17]: 0
- Plant response rating, Wheat [18]: 0
- Plant response rating, Surinam Grass [19]: 0
- Plant response rating, Soybean [20]: 0
- Plant response rating, Sunflower [21]: 0
- Plant response rating, Velvetleaf [22]: 0
- Plant response rating, Rice ([23]; 31 g ai/ha): 0
- Plant response rating, Rice ([23]; 62 g ai/ha): 0
- Plant response rating, Rice ([23]; 125 g ai/ha): 0
- Plant response rating, Rice ([23]; 250 g ai/ha): 20
- Plant response rating, Sedge, Umbrella ([24]; 31 g ai/ha): 0
- Plant response rating, Sedge, Umbrella ([24]; 62 g ai/ha): 0
- Plant response rating, Sedge, Umbrella ([24]; 125 g ai/ha): 0
- Plant response rating, Sedge, Umbrella ([24]; 250 g ai/ha): 0
- Plant response rating, Ducksalad ([25]; 31 g ai/ha): 0
- Plant response rating, Ducksalad ([25]; 62 g ai/ha): 0
- Plant response rating, Ducksalad ([25]; 125 g ai/ha): 0
- Plant response rating, Ducksalad ([25]; 250 g ai/ha): 0
- Plant response rating, Barnyardgrass ([26]; 31 g ai/ha, scale 0 to 100): 20
- Plant response rating, Barnyardgrass ([26]; 62 g ai/ha, scale 0 to 100): 20
- Plant response rating, Barnyardgrass ([26]; 125 g ai/ha, scale 0 to 100): 20
- Plant response rating, Barnyardgrass ([26]; 250 g ai/ha, scale 0 to 100 (0 no effect, 100 complete control)): 20
